Results on 20 molecules are retold here after paper PMC7603405 (Nature, 2020).

Entries after “also recorded” stand apart in the source; their conditions may differ. Peptide text beside a SMILES is read from it. * marks the point of attachment. Cbz = O=C(OCc1ccccc1)*; CHN2 = [N-]=[N+]=C* Where only a bound is given, the exact number is not on record here.

The term Cmax denotes the peak of the concentration-time curve.

The subject of series [1] is SARS-CoV-2 USA-WA1/2020. It is filed as cell-based. The settings on record: 2.5 and 1 μM, Vero E6, Table S3.
Series [2] concerns SARS-CoV-2 HKU-001a. It is filed as cell-based. Conditions: positive control of the screen.
The subject of series [3] is SARS-CoV-2 HKU-001a. The series is classed as cell-based.
The conditions of series [4]: cited from earlier work.
For series [5] the following is noted: read-out: Cmax; humans; cited from earlier work.
For series [6], the system named is SARS-CoV-2 USA-WA1/2020. As to the kind of experiment: Time-of-addition assay in Vero E6 cells. The settings on record: 2.5 μM. The series is classed as cell-based.
For series [7], the system named is SARS-CoV-2 USA-WA1/2020. The series is classed as cell-based.
Series [8] deals with SARS-CoV-2 USA-WA1/2020. As to the kind of experiment: Drug synergy quantification with remdesivir in Vero E6 cells. It is filed as cell-based.
Series [9] concerns the target SARS-CoV-2 main protease (Mpro) (Severe acute respiratory syndrome coronavirus 2, UniProt P0DTD1). The series is classed as biochemical. The settings on record: 1 to 50 μM.
Series [10] addresses SARS-CoV-2 papain-like protease (PLpro) (Severe acute respiratory syndrome coronavirus 2, UniProt P0DTD1). The series is classed as biochemical. The settings on record: 1 to 50 μM.
A further series deals with COVID-19. Conditions: COVID-19 patients, NIAID trial; cited from earlier work.
Another series relates to SARS-CoV-2. It is filed as cell-based. The settings on record: 5 μM; reversed by RAR antagonist Ro41-5253 5 μM.

For the molecule `COc1cc(F)cc2c1-c1ccc(F)cc1C21NC(=O)NC1=O` (stereo not drawn) [AL 3152], the “validation as inhibitor of SARS-CoV-2 replication” value (shortened to “validation as inhibitor”) in the series with SARS-CoV-2 USA-WA1/2020 [1] is recorded as “validated”.
For the molecule `Cc1cccc(/C=N/Nc2cc(N3CCOCC3)n3nc(-c4ccncc4)cc3n2)c1` [APY0201], the “antiviral activity in CPE assay” value in the series with SARS-CoV-2 HKU-001a [2] was “confirmed the potential antiviral activity”.
Consider `CCN(CC)CCCNc1ccnc2cc(Cl)ccc12` [AQ-13], for which, in the series with SARS-CoV-2 USA-WA1/2020 [1], the “validation as inhibitor” value is listed as “validated”.
Consider `Cc1cccc(/C=N/Nc2cc(N3CCOCC3)nc(OCCc3ccccn3)n2)c1` [Apilimod], for which the “antiviral activity in ex vivo lung culture” value in the series on SARS-CoV-2 HKU-001a [3] is “potently antagonizes viral replication”. Also, the “doses showing a desirable safety profile in humans” value in series [4] (well tolerated) was at most 125 mg BID. Further, the Cmax in series [5] is 265 nM. In addition, the “step of viral life cycle inhibited, time of addition” value in the series with SARS-CoV-2 USA-WA1/2020 [6] is “inhibit viral replication during entry”. In the series with SARS-CoV-2 USA-WA1/2020 [7], the “reduction of number of infected cells” value was determined as 85%.
With `COc1ccc(CCN2CCC(Nc3nc4ccccc4n3Cc3ccc(F)cc3)CC2)cc1` [Astemizole], the “validation as inhibitor” value in the series with SARS-CoV-2 USA-WA1/2020 [1] is “confirmed to inhibit SARS-CoV-2 replication”.
On to `COc1ccc2cc1Oc1ccc(cc1)C[C@H]1c3cc(c(OC)cc3CCN1C)Oc1c(OC)c(OC)cc3c1[C@H](C2)N(C)CC3` [Hanfangchin A, Tetrandrine], for which the “validation as inhibitor” value in the series on SARS-CoV-2 USA-WA1/2020 [1] is “validated”. The “synergy with remdesivir” value with SARS-CoV-2 USA-WA1/2020 [8] is given as “notable levels of synergy with remdesivir”.
As to `CC(/C=C/C=C(\C)c1cc(C(C)(C)C)cc(C(C)(C)C)c1)=C\C(=O)O` [LGD-1550], the “validation as inhibitor” value in the series on SARS-CoV-2 USA-WA1/2020 [1] is reported as “validated”.
Turning to `C[C@@H]1CS/C(=N\NC(=O)C(=O)[C@H](NC(=O)C2CCCCCC2)C2CCOCC2)N1C` [ONO 5334], the “inhibitory activity upon 3CLpro / Mpro” value in series [9] is on record as “lack potent inhibitory activity”. Also, the “tolerability in phase II clinical trials” value in series [4] (treatment of osteoporosis) was “well tolerated”. In addition, the “inhibitory activity upon PLpro” value in series [10] is reported as “lack potent inhibitory activity”. Further, the “reduction of number of infected cells” value with SARS-CoV-2 USA-WA1/2020 [7] is given as 72%.
Take `CCC(CC)COC(=O)[C@H](C)N[P@](=O)(OC[C@H]1O[C@@](C#N)(c2ccc3c(N)ncnn23)[C@H](O)[C@@H]1O)Oc1ccccc1` [Remdesivir]: the “improved time to recovery in treated patients” value in the series with COVID-19 is reported as 47%.
With `CC[C@H](NC(=O)[C@H](CS(=O)(=O)CC1CC1)N[C@@H](c1ccc(F)cc1)C(F)(F)F)C(=O)C(=O)NC1CC1` [VBY-825], in [9], the “inhibitory activity upon 3CLpro / Mpro” value was “lack potent inhibitory activity”. The “inhibitory activity upon PLpro” value in series [10] is listed as “lack potent inhibitory activity”.
For `CC(C)CC(NC(=O)OCc1ccccc1)C(=O)NC(C(=O)NCC(=O)C=[N+]=[N-])C(C)C` (stereo not drawn) [Z LVG CHN2] (Cbz-Leu-Val-Gly-CHN2; configuration not given here), the “inhibitory activity upon 3CLpro / Mpro” value in series [9] is “lack potent inhibitory activity”. Moreover, in [10], the “inhibitory activity upon PLpro” value is “lack potent inhibitory activity”.
As for `CCOC(=O)c1ncc2[nH]c3cccc(OC(C)C)c3c2c1C` [ZK-93426], in the series on SARS-CoV-2 USA-WA1/2020 [1], the “validation as inhibitor” value is “validated”.
In the case of `COc1cc(C)c(/C=C/C(C)=C/C=C/C(C)=C/C(=O)O)c(C)c1C` [acitretin], the “validation as inhibitor” value with SARS-CoV-2 USA-WA1/2020 [1] was “validated; also recorded: confirmed to inhibit SARS-CoV-2 replication”.
In the case of `CCN(CC)CCCC(C)Nc1ccnc2cc(Cl)ccc12` (stereo not drawn) [chloroquine], in the series with SARS-CoV-2 USA-WA1/2020 [1], the “validation as inhibitor” value was “confirmed to inhibit SARS-CoV-2 replication”.
For `CC(C)CCC(=O)CC1c2ccccc2C(=O)N1c1ccc2ccc(Cl)nc2n1` (stereo not drawn) [pagoclone], the “validation as inhibitor” value in the series on SARS-CoV-2 USA-WA1/2020 [1] is “validated”.
On the same count and under the same terms, with `CC1(C)CCC(C)(C)c2cc(NC(=O)c3ccc(C(=O)O)cc3)ccc21` [tamibarotene] the entry was “validated”.
Take `CCOC(=O)c1ccc(C#Cc2ccc3c(c2)C(C)(C)CCS3)nc1` [tazarotene]: in the series with SARS-CoV-2 USA-WA1/2020 [1], the “validation as inhibitor” value is “validated”. Further, the “effect on viral replication, chemical epistasis” value in the series with SARS-CoV-2 is given as “inhibition of viral replication”.
For the molecule `CC1=C(/C=C/C(C)=C/C=C/C(C)=C/C(=O)O)C(C)(C)CCC1` [tretinoin], the “validation as inhibitor” value with SARS-CoV-2 USA-WA1/2020 [1] is listed as “validated”.
Same read-out and setting: with `CCN(C(C)=O)c1cccc(-c2ccnc3c(C#N)cnn23)c1` [zaleplon GR] the entry was “validated”.
On to MDL 28170, for which the “inhibitory activity upon 3CLpro / Mpro” value in [9] was “lack potent inhibitory activity”. The “inhibitory activity upon PLpro” value in series [10] is recorded as “lack potent inhibitory activity”. The “reduction of number of infected cells” value in the series on SARS-CoV-2 USA-WA1/2020 [7] is listed as 65%.
